Assay results: the supplement of paper PMC5752671

Experiments:
Details in all cases: 4 days
[1] = system: EOL-1; test: IC50 (cell viability) (log10 M)
Protocol: (§1)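 14 AML cell lines were treated with 8 drug concentrations in duplicate on ECM-coated 384-well plates, with CellTiter-Glo viability read after 4 days. IC50 is the concentration where the fitted 4-parameter curve crosses 50% viability. For inactive compounds the maximum tested concentration is used as a placeholder.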

[2] = system: HL60; test: IC50 (cell viability) (log10 M)
Protocol: as §1

[3] = system: KASUMI1; test: IC50 (cell viability) (log10 M)
Protocol: as §1

[4] = system: KG1; test: IC50 (cell viability) (log10 M)
Protocol: as §1

[5] = system: MOLM/13; test: IC50 (cell viability) (log10 M)
Protocol: as §1

[6] = system: MOLM/16; test: IC50 (cell viability) (log10 M)
Protocol: as §1

[7] = system: MV4.11; test: IC50 (cell viability) (log10 M)
Protocol: as §1

[8] = system: NB4; test: IC50 (cell viability) (log10 M)
Protocol: as §1

[9] = system: OCI-AML2; test: IC50 (cell viability) (log10 M)
Protocol: as §1

[10] = system: OCI-AML3; test: IC50 (cell viability) (log10 M)
Protocol: as §1

[11] = system: PL-21; test: IC50 (cell viability) (log10 M)
Protocol: as §1

[12] = system: SKM1; test: IC50 (cell viability) (log10 M)
Protocol: as §1

[13] = system: THP-1; test: IC50 (cell viability) (log10 M)
Protocol: as §1

[14] = system: U937; test: IC50 (cell viability) (log10 M)
Protocol: as §1

[15] = system: HL60; test: area under dose-response curve (cell viability) (AUC (arbitrary, % viability x log concentration)); higher = less sensitive (more viable)
Procedure, shortened: (§2)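 Drugs were dispensed robotically, one day after plating, onto fourteen leukemia cell lines in 384-well plates coated with extracellular matrix. Each drug was tested in duplicate at eight concentrations spanning 4–5 logs inside 10^–12–10^–4 M, adjusted per drug, and CellTiter-Glo readout followed after 4 days. Duplicates were averaged and a four-parameter sigmoid was fitted. The area under that fitted curve is the reported value.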

[16] = system: MV4.11; test: as above
Procedure, shortened: as §2

[17] = system: OCI-AML3; test: as above
Procedure, shortened: as §2

[18] = system: PL-21; test: as above
Procedure, shortened: as §2

[19] = system: SKM1; test: as above
Procedure, shortened: as §2

[20] = system: U937; test: as above
Procedure, shortened: as §2

Compound | IC50 (log10 M) [1] | IC50 (log10 M) [2] | IC50 (log10 M) [3] | IC50 (log10 M) [4] | IC50 (log10 M) [5] | IC50 (log10 M) [6] | IC50 (log10 M) [7] | IC50 (log10 M) [8] | IC50 (log10 M) [9] | IC50 (log10 M) [10] | IC50 (log10 M) [11] | IC50 (log10 M) [12] | IC50 (log10 M) [13] | IC50 (log10 M) [14] | area under dose-response curve [15] | area under dose-response curve [16] | area under dose-response curve [17] | area under dose-response curve [18] | area under dose-response curve [19] | area under dose-response curve [20]
CCCS(=O)(=O)Nc1ccc(F)c(C(=O)c2c[nH]c3ncc(-c4ccc(Cl)cc4)cc23)c1F [PLX-4032] | > -5 | > -5 | -5.02 | > -5 | > -5 | > -5 | > -5 | > -5 | -5.27 | > -5 | > -5 | > -5 | > -5 | > -5 | 757 | 702 | 751 | 638 | 661 | 692
CCCS(=O)(=O)Nc1ccc(F)c(C(=O)c2c[nH]c3ncc(Cl)cc23)c1F [PLX-4720] | -5.41 | > -5 | > -5 | > -5 | > -5 | -5.42 | > -5 | > -5 | > -5 | > -5 | > -5 | -5.33 | > -5 | > -5 | 769 | 714 | 763 | 616 | 597 | 638
CC(=O)O[C@H]1C(=O)[C@@]2(C)[C@H]([C@H](OC(=O)c3ccccc3)[C@]3(O)C[C@H](OC(=O)[C@H](O)[C@@H](NC(=O)c4ccccc4)c4ccccc4)C(C)=C1C3(C)C)[C@]1(OC(C)=O)CO[C@@H]1C[C@@H]2O [Paclitaxel] | < -8.48 | < -8.48 | < -8.48 | < -8.48 | < -8.48 | < -8.48 | < -8.48 | < -8.48 | < -8.48 | < -8.48 | < -8.48 | < -8.48 | < -8.48 | < -8.48 | 56.2 | 8.21 | 133 | 5.02 | 99.8 | 6.61
Cc1[nH]c2ccccc2c1CCNCc1ccc(/C=C/C(=O)NO)cc1 [Panobinostat] | -8.74 | -8.45 | -8.48 | -8.44 | -8.24 | -8.71 | -8.66 | -8.35 | -8.5 | -8.2 | -8.44 | -8.46 | -8.44 | -8.39 | 307 | 259 | 310 | 319 | 318 | 289
Cc1ccc(Nc2nccc(N(C)c3ccc4c(C)n(C)nc4c3)n2)cc1S(N)(=O)=O [Pazopanib] | -5.46 | > -5 | > -5 | > -5 | > -5 | > -5 | > -5 | > -5 | > -5 | > -5 | > -5 | > -5 | > -5 | > -5 | 608 | 559 | 615 | 562 | 642 | 581
Nc1nc2[nH]cc(CCc3ccc(C(=O)N[C@@H](CCC(=O)O)C(=O)O)cc3)c2c(=O)[nH]1 [Pemetrexed] | > -5 | > -5 | > -5 | > -5 | > -5 | > -5 | > -5 | > -5 | > -5 | > -5 | > -5 | > -5 | > -5 | > -5 | 643 | 640 | 641 | 618 | 654 | 628
OC[C@H]1O[C@@H](n2cnc3c2N=CNC[C@H]3O)C[C@@H]1O [Pentostatin] | > -5 | > -5 | > -5 | > -5 | > -5 | > -5 | > -5 | > -5 | > -5 | > -5 | > -5 | > -5 | > -5 | > -5 | 652 | 647 | 625 | 616 | 637 | 651
CC[C@H](C)C(=O)O[C@H]1C[C@H](O)C=C2C=C[C@H](C)[C@H](CC[C@@H](O)C[C@@H](O)CC(=O)O)[C@H]21 [Pravastatin] | > -5 | > -5 | > -5 | > -5 | > -5 | > -5 | > -5 | > -5 | > -5 | > -5 | > -5 | > -5 | > -5 | > -5 | 668 | 699 | 657 | 638 | 647 | 668
CC[C@H](CO)Nc1nc(NCc2ccccc2)c2ncn(C(C)C)c2n1 [R-roscovitine] | > -5 | > -5 | > -5 | > -5 | > -5 | -5 | > -5 | > -5 | > -5 | > -5 | > -5 | > -5 | > -5 | > -5 | 640 | 697 | 644 | 623 | 644 | 658
COc1cc(F)c(F)c(Nc2ccc(I)cc2F)c1NS(=O)(=O)C1(C[C@H](O)CO)CC1 [RDEA-119] | -6.65 | -7.42 | -6.56 | -6.22 | -5.65 | -5.91 | -6.17 | -6.54 | -8.07 | -7.81 | -6.99 | -7.58 | -5.46 | -5.33 | 361 | 489 | 317 | 410 | 338 | 560
